Laboratory results taken from patent US4355104A, “Bacteriolytic proteins” (priority 1980, dated 1982).

Columns and labels:
E. coli, strain D31 = assay: turbidimetric lytic activity against E. coli; type: cell-based, Escherichia coli; conditions: for Specific Lytic Activity: 1 unit = 50% lysis; for specific lytic activity against E. coli compared with immune hemolymph: versus starting material
Description: (§1) The lytic activity of the P9 proteins against E. coli at each stage of the process can be determined turbidimetrically and the total weight of protein measured. For this purpose, one unit of lytic activity is defined as the amount of factor giving 50% reduction of the absorbance of […] (50% lysis) compared to a control. Log phase E. coli, strain D31 can be centrifuged and suspended in ice-cold 0.1 M phosphate buffer, pH 6.4, to give a density of 30 units on a Klett-Summerson colorimeter (A570 0.3-0.5). A small volume, usually 10 μl, of the sample to be tested is added to 1 ml of bacterial suspension in an ice bath. In the control samples, an equal amount of buffer is substituted. The mixture is incubated (30 minutes at 37° C.) and transferred back to the ice bath during which most of the clearing of the E. coli suspension occurs. Results of such a determination, usually measured within 1 h, are tabulated below in Table 1.

E. coli [1] = assay: influence of anions on lytic activity of P9 proteins; type: cell-based, Escherichia coli; conditions: 0.045 M MES-buffer, pH 6.3
Experimental: as §1, with “Log phase E. coli, strain D31 can be centrifuged and suspended in ice-cold 0.1 M phosphate buffer, pH 6.4, to give a density of 30 units on a Klett-Summerson colorimeter (A570 0.3-0.5).” left out
The effects of sulfate or phosphate ions are hardly significant. The presence of acetate and formate buffers during the chromatography sequences until their removal by freeze-drying should be taken into account in interpreting the recovery data for protein P9 B in Table 1.

[2] = system: Enterobacter cloacae, β11; assay: anti-bacterial specificity, killing time; type: cell-based; conditions: time required for killing 90% of the bacteria; 3 x 10^6 cells/ml
Description: (§2) The lysis of E. coli is believed to be due to at least two very similar small and basic proteins designated P9A and P9B. The P9 proteins are active against gram negative bacteria such as E. coli K12 strain D21f2, E. coli K12 strain D21, E. coli K12 strain D31, Enterobacter cloacae, β11, Pseudomonas aeruginosa, OT97, and Serratia marcescens, Db1108 but not S. marcescens Db11. The E. coli K12, strain D31 is a penicillin and streptomycin resistant mutant with a defective lipopolysaccharide. S. marcescens Db11 is a streptomycin resistant mutant derived from a parental strain, pathologic for Drosophila. S. marcescens Db1108 is a spontaneous phage resistant mutant of Db11. The bacterial strains are discussed in Boman, H. G., Nilsson-Faye, I., Paul, K. & Rasmuson, T. (1974) Infect. Immun. 10, 136-145; Monner, D. A., Jonsson, S. & Boman, H. G. (1971) J. Bacteriol. 107, 420-432; and Boman, H. G. & Monner, D. A. (1975) J. Bacteriol. 121, 455-464.
(§3) The anti-bacterial specificity of P9 proteins was determined for gram negative bacteria. Killing time shown in Table 4 is the time required for killing 90% of the bacteria. […] It is also clear that the heptose-less mutant E. coli D21f2 and S. marcescens Db1108 both were more sensitive to P9 proteins than their respective parental strains, D21 and Db11.

[3] = system: Escherichia coli K12, D21f2; assay: anti-bacterial specificity, killing time; type: cell-based; conditions: time required for killing 90% of the bacteria; 3 x 10^6 cells/ml
Description: as §2, §3

[4] = system: Escherichia coli K12, D21; assay: anti-bacterial specificity, killing time; type: cell-based; conditions: time required for killing 90% of the bacteria; 4 x 10^6 cells/ml
Description: as §2, §3

[5] = system: Pseudomonas aeruginosa, OT97; assay: anti-bacterial specificity, killing time; type: cell-based; conditions: time required for killing 90% of the bacteria; 4 x 10^6 cells/ml
Description: as §2, §3

[6] = system: Serratia marcescens, Db1108; assay: anti-bacterial specificity, killing time; type: cell-based; conditions: time required for killing 90% of the bacteria; 3 x 10^6 cells/ml
Description: as §2, §3

[7] = system: Serratia marcescens, Db11; assay: anti-bacterial specificity, killing time; type: cell-based; conditions: time required for killing 90% of the bacteria; 3 x 10^6 cells/ml
Description: as §2, §3

E. coli [8] = assay: heat stability in boiling water bath, remaining lytic activity; type: physicochemical, Escherichia coli
Description: FIG. 3 is a graph depicting the effect of heat on the lytic activity of lysozyme and P9 proteins. The filled symbols in the figure indicate a pH of 6.4; the open symbols indicate a pH of 3.2. Activity against E. coli is denoted in the figure by triangles; activity against M. Luteus is denoted by squares.
The activity against E. coli (triangles) is compared in FIG. 3 to the activity against M. luteus (squares). The former activity is associated with the P9 proteins and the latter with the lysozyme.

E. coli D31 = assay: simultaneous decrease of absorbance at 570 nm and viable count; type: cell-based, Escherichia coli; conditions: eight units per ml, 1 min
Experimental: For E. coli D31 the effect of P9 proteins can be observed by simultaneously following the decrease in the absorbance at 570 nm and the viable count of E. coli. Eight units of protein P9 B per ml in 1 min gave a reduction of viable count from 10^8 to <10^5 while the absorbance dropped 14%.

[9] = fraction after Step 1 of chromatography
[10] = added salt: Ammonium formate, ionic strength 0.15 M
[11] = added salt: None, ionic strength 0.15 M with sodium chloride
[12] = added salt: Sodium acetate, ionic strength 0.15 M
[13] = added salt: Sodium phosphate, ionic strength 0.15 M
[14] = added salt: Sodium sulfate, ionic strength 0.15 M

N-LYS-TRP-LYS-LEU-PHE-LYS-LYS-ILE-GLU-LYS-VAL-GLY-GLN-ASN-ILE-ARG-ASP-GLY- ILE-ILE-LYS-ALA-GLY-PRO-ALA-VAL-ALA-VAL-VAL-GLY-GLN-ALA-THR-C (KWKLFKKIEKVGQNIRDGIIKAGPAVAVVGQAT; printed: LYS-TRP-LYS-LEU-PHE-LYS-LYS-ILE-GLU-LYS-VAL-GLY-GLN-ASN-ILE-ARG-ASP-GLY- ILE-ILE-LYS-ALA-GLY-PRO-ALA-VAL-ALA-VAL-VAL-GLY-GLN-ALA-THR-) [P9 A]
Specific Lytic Activity (E. coli, strain D31; after Step 2 and freeze-drying): 5.6 Units/μg of protein
Specific Lytic Activity (E. coli, strain D31; [9]): 4.4 Units/μg of protein
specific lytic activity against E. coli compared with immune hemolymph (E. coli, strain D31): substantially greater
Relative Activity (E. coli [1]; [10]): 1.3
Relative Activity (E. coli [1]; [11]): 1.0
Relative Activity (E. coli [1]; [12]): 0.9
Relative Activity (E. coli [1]; [13]): 0.8
Relative Activity (E. coli [1]; [14]): 0.6
Killing Time [2]: 12 min
Killing Time [3]: < 0.25 min
Killing Time [4]: 0.60 min
Killing Time [5]: 10 min
Killing Time [6]: 48 min
Killing Time [7]: > 120 min
heat stability in words (E. coli [8]): heat stable

N-LYS-TRP-LYS-VAL-(MET)-ILE-(PHE)-LYS-LYS-ILE-(PHE)-GLU-LYS- -GLY-ARG-ASN-ILE-(PHE)-ARG-ASN-(LYS)-GLY- [P9 B]
Specific Lytic Activity (E. coli, strain D31; after Step 2 and freeze-drying): 1.9 Units/μg of protein
Specific Lytic Activity (E. coli, strain D31; [9]): 5.3 Units/μg of protein
specific lytic activity against E. coli compared with immune hemolymph (E. coli, strain D31): substantially greater
increase in activity (E. coli [1]; acetate or formate ions, ionic strength 0.15 M with sodium chloride): four-fold increase
Relative Activity (E. coli [1]; [10]): 4.5
Relative Activity (E. coli [1]; [11]): 1.0
Relative Activity (E. coli [1]; [12]): 4.1
Relative Activity (E. coli [1]; [13]): 1.3
Relative Activity (E. coli [1]; [14]): 1.2
Killing Time [2]: 15 min
Killing Time [3]: < 0.25 min
Killing Time [4]: 1 min
Killing Time [5]: 5 min
Killing Time [6]: 115 min
Killing Time [7]: > 120 min
drop of absorbance at 570 nm (E. coli D31): 14%
viable count after treatment (E. coli D31; reduction from 10^8): < 10^5
heat stability in words (E. coli [8]): heat stable
